Measured values from PMC5510229, “BCAT1 controls metabolic reprogramming in activated human macrophages and is associated with inflammatory diseases” (Nature Communications, 2017).

Columns and labels:
[1] = tested on: human monocyte-derived macrophages (hMDMs); experiment: qRT-PCR / Western blot of activation markers in hMDMs; format: cell-based; conditions: 3 h
Description: Figure 1 BCAT1 expression and inhibition in human macrophages. […] (b) Chemical structure of ERG240 and leucine. (c) Enzymatic activity of recombinant human BCAT1 and BCAT2 in presence of ERG240. (d) Relative expression of IRG1, HIF1A and IL1B measured by qRT-PCR in control, ERG240-treated (20 mM, 3 h), LPS treated (100 ng ml^−1, 3 h), and LPS+ERG240 treated (LPS, 100 ng ml^−1; ERG240, 20 mM for 3 h) hMDMs. ns, non-significant. All expression values are normalized to those obtained for HPRT gene expression. n=3 healthy donor hMDMs were used in each group. (e) Western blot analysis of IRG1, IL-1β, HIF-1α and beta-actin (ACTB) in control (untreated), ERG240-treated (20 mM, 3 h), LPS treated (100 ng ml^−1, 3 h) and LPS+ERG240 treated (LPS, 100 ng ml^−1; ERG240, 20 mM for 3 h) hMDMs. […]
hMDMs were lysed in Laemmli sample buffer supplemented with protease inhibitors and resolved by SDS-PAGE, transferred into PVDF membranes, and subjected to immunoblotting with the primary antibodies described above and secondary detection antibodies. The probed proteins were detected using SuperSignal West Femto Chemiluminescent Substrate (Thermo Fisher Scientific Inc., Rockford, IL). […] Results were analysed using the comparative Ct method and each sample was normalized to the indicated reference gene, to account for any cDNA loading differences. […]

[2] = tested on: mouse bone marrow derived macrophages (BMDMs); experiment: BMDM transwell migration assay; format: cell-based, C57BL/6 mouse; conditions: 10 hours, 10% FBS as chemo-attractant
From the text: Figure 6 ERG240 treatment results in reduced macrophage infiltration in CIA and crescentic glomerulonephritis. (a) Inhibition of murine BMDM migration in vitro in the presence of different concentrations of ERG240 by transwell migration assay (left panel, results are presented as the average of four experiments). The drug had no effect on cell viability (right panel, results are presented as the average of three experiments). (b) IHC analysis of CIA joints for expression of F4/80. Representative images show F4/80+ cells (indicated with an arrow). F4/80+ cell quantification is shown on the right panel. (c) Representative images showing glomerular ED1 (rat CD68)-positive cells in ERG240 treated animals following NTN. Percentage of glomerular ED1-positive cell quantification is shown on the right panel. Error bars are s.e.m. […]
The migration of BMDMs was assessed using a modified Bo yden chamber methodology. […]
To determine the effect of ERG240 on the total number of BMDMs, cell s were plated onto a 96-well plate at a density of 5,000 cells per well in complete media and allowed to adhere overnight. The cells were then exposed to various drug concentrations overnight and the cell population was quantified with CyQuant Cell Proliferation kit (Life Technologies) using triplicates, in two independent experiments. For hMDMs, cell viability was determined using the alamarBlue® Assa y (Invitrogen). […]

CC(=O)C(C)CCC(=O)O (stereo not drawn) [ERG240]
IRG1 protein levels (Western blot) ([1]; LPS 100 ng ml^−1 + ERG240 20 mM): reduction in IRG1 levels
IRG1 mRNA levels ([1]; LPS-stimulated hMDMs (100 ng ml^−1), ERG240 20 mM): dramatic reduction
IC50 [2]: 5 to 10 mM
